Target: Bromodomain-containing protein 4 (Homo sapiens) (UniProt O60885)
Assay: Induction of degradation of BRD4 in human MDA-MB-468 cells at 0.01 uM measured after 24 to 48 hrs by densitometry analysis relative to control
Assay type: cell-based
Settings: time lower […], time upper […]

Cc1sc2c(c1C)C(c1ccc(Cl)cc1)=N[C@@H](CC(=O)NCC(=O)NCCn1nnc(COc3ccc(Cl)c4c3[C@@H](CN3CC5(CC5)CC3=O)N(C(=O)[C@@H]3CCCC[C@]3(C)C(=O)O)CC4)c1C)c1nnc(C)n1-2
Activity: 75%

Source: ChEMBL document CHEMBL5357080, “Redefining Neurodegenerative Treatment: Synergy of KEAP1, PROTACs, and Inflammatory Modulators” (ACS Med Chem Lett, 2024)
